Measured values: ChEMBL document CHEMBL3885861, “Open TG-GATES”

Species: Rattus norvegicus
Assay: Open TG-GATES - Regimen: Daily Repeat
Assay type: toxicity, organism-based, Sprague-Dawley
Design: regimen Daily Repeat, gender Male, age 6 weeks
Settings: in vivo, po, 3 mg/kg, route gavage, dose level Low; for APTT / Bas / Eos / Fbg / Hb / Ht / Lym / MCH / MCHC / MCV / Mono / Neu / PT / Plat / RBC / Ret / WBC: tissue Blood; for KIDNEY_L / KIDNEY_R / KIDNEY_TOTAL: tissue Kidney; for LIVER: tissue Liver; for A/G / ALP / ALT / AST / BUN / CRE / Ca / Cl / DBIL / GLC / IP / K / LDH / Na / PL / RALB / TBIL / TC / TG / TP / gamma-GTP: tissue Plasma

## Nc1c2c(nc3ccccc13)CCCC2 [TACRINE]
72 h, time 3 day
  TERMINAL_BW: 218.9 g
  APTT: 21 s
  Bas: 0%
  Eos: 0.8%
  Fbg: 309.2 mg/dL
  Hb: 13.8 g/dL
  Ht: 39.3%
  Lym: 80.2%
  MCH: 21 pg
  MCHC: 35%
  MCV: 60.1 fL
  Mono: 2.8%
  Neu: 15.2%
  PT: 16.1 s
  Plat: 115.7 x10_4/uL
  RBC: 655.6 x10_4/ul
  Ret: 5.8%
  WBC: 128.8 x10_2/uL
  KIDNEY_L: 0.9 g
  KIDNEY_R: 1 g
  KIDNEY_TOTAL: 1.9 g
  LIVER: 10 g
  A/G: 1.3
  ALP: 1457.8 IU/L
  ALT: 48.6 IU/L
  AST: 78.4 IU/L
  BUN: 17.8 mg/dL
  CRE: 0.2 mg/dL
  Ca: 10.8 mg/dL
  Cl: 106.8 meq/L
  DBIL: 0.004 mg/dL
  GLC: 190.2 mg/dL
  IP: 7.2 mg/dL
  K: 4.2 meq/L
  LDH: 313 IU/L
  Na: 142 meq/L
  PL: 168 mg/dL
  RALB: 3.2 g/dL
  TBIL: 0.016 mg/dL
  TC: 85.6 mg/dL
  TG: 111 mg/dL
  TP: 5.6 g/dL
  gamma-GTP: 1 IU/L
[…], time 7 day
  TERMINAL_BW: 247.7 g
  APTT: 21.5 s
  Bas: 0%
  Eos: 1%
  Fbg: 301 mg/dL
  Hb: 13.7 g/dL
  Ht: 38.9%
  Lym: 81.6%
  MCH: 21.3 pg
  MCHC: 35.3%
  MCV: 60.3 fL
  Mono: 2.2%
  Neu: 14.6%
  PT: 16.1 s
  Plat: 112.9 x10_4/uL
  RBC: 645.2 x10_4/ul
  Ret: 6%
  WBC: 119.7 x10_2/uL
  KIDNEY_L: 1 g
  KIDNEY_R: 1.1 g
  KIDNEY_TOTAL: 2.1 g
  LIVER: 11 g
  A/G: 1.2
  ALP: 1691 IU/L
  ALT: 37.2 IU/L
  AST: 68.2 IU/L
  BUN: 18.6 mg/dL
  CRE: 0.2 mg/dL
  Ca: 10.7 mg/dL
  Cl: 108 meq/L
  DBIL: 0 mg/dL
  GLC: 187.8 mg/dL
  IP: 7.4 mg/dL
  K: 4.1 meq/L
  LDH: 156.8 IU/L
  Na: 142.6 meq/L
  PL: 158 mg/dL
  RALB: 3.1 g/dL
  TBIL: 0.028 mg/dL
  TC: 81.6 mg/dL
  TG: 101.2 mg/dL
  TP: 5.7 g/dL
  gamma-GTP: 1.6 IU/L
[…], time 14 day
  TERMINAL_BW: 303.9 g
  APTT: 23.3 s
  Bas: 0%
  Eos: 1%
  Fbg: 309.4 mg/dL
  Hb: 14.5 g/dL
  Ht: 41.1%
  Lym: 79.8%
  MCH: 21.1 pg
  MCHC: 35.4%
  MCV: 59.5 fL
  Mono: 1.4%
  Neu: 17.4%
  PT: 15.5 s
  Plat: 132.9 x10_4/uL
  RBC: 690.8 x10_4/ul
  Ret: 4.6%
  WBC: 104.3 x10_2/uL
  KIDNEY_L: 1.2 g
  KIDNEY_R: 1.2 g
  KIDNEY_TOTAL: 2.4 g
  LIVER: 13.3 g
  A/G: 1.2
  ALP: 1333.2 IU/L
  ALT: 39.2 IU/L
  AST: 65.2 IU/L
  BUN: 18.2 mg/dL
  CRE: 0.2 mg/dL
  Ca: 10.8 mg/dL
  Cl: 107.4 meq/L
  DBIL: 0 mg/dL
  GLC: 191.6 mg/dL
  IP: 6.5 mg/dL
  K: 4.2 meq/L
  LDH: 164 IU/L
  Na: 142 meq/L
  PL: 153 mg/dL
  RALB: 3.2 g/dL
  TBIL: 0.018 mg/dL
  TC: 75.6 mg/dL
  TG: 121.4 mg/dL
  TP: 5.9 g/dL
  gamma-GTP: 1.8 IU/L
[…], time 28 day
  TERMINAL_BW: 351.6 g
  APTT: 23.8 s
  Bas: 0%
  Eos: 1%
  Fbg: 294.8 mg/dL
  Hb: 15.6 g/dL
  Ht: 42.8%
  Lym: 84%
  MCH: 20.1 pg
  MCHC: 36.5%
  MCV: 55.2 fL
  Mono: 1.6%
  Neu: 12.6%
  PT: 16.3 s
  Plat: 99.5 x10_4/uL
  RBC: 776.2 x10_4/ul
  Ret: 2.5%
  WBC: 118.7 x10_2/uL
  KIDNEY_L: 1.3 g
  KIDNEY_R: 1.2 g
  KIDNEY_TOTAL: 2.5 g
  LIVER: 13.9 g
  A/G: 1.1
  ALP: 1169.6 IU/L
  ALT: 38.2 IU/L
  AST: 67.6 IU/L
  BUN: 18.8 mg/dL
  CRE: 0.2 mg/dL
  Ca: 10.3 mg/dL
  Cl: 107.6 meq/L
  DBIL: 0 mg/dL
  GLC: 190.6 mg/dL
  IP: 5.9 mg/dL
  K: 3.9 meq/L
  LDH: 137 IU/L
  Na: 142.6 meq/L
  PL: 140 mg/dL
  RALB: 3.2 g/dL
  TBIL: 0.004 mg/dL
  TC: 71.8 mg/dL
  TG: 98.6 mg/dL
  TP: 6 g/dL
  gamma-GTP: 1 IU/L
